Structures are written as SMILES. Where only a bound is given, the exact number is not on record here.

Our source for the Dmax and DC50 values is patent US20230372498A1, “PLK1 SELECTIVE DEGRADATION INDUCING COMPOUND” (UPPTHERA, priority 2020, published 2023).

The test has as its target T1, PLK1 (Homo sapiens, UniProt P53350).
T1 construct: endogenous in cells; host or cells: HeLa
In words: PLK1 protein degradation in HeLa cells, Western blotting (PLK1/GAPDH ratio). The class given is cell-based. The note with it: 6 hours compound incubation; for Dmax: thymidine block and release, 10 points three-fold from 3 μM, PLK1 to GAPDH ratio, read-out: Dmax; for DC50: measured only if the grade of Dmax is A or B. In outline: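 Thymidine-synchronised HeLa cells (2 mM, 24 h) released 4 h into complete medium, then treated 6 h with compound in 10-point 3-fold dilutions from 3 μM. RIPA lysates (15 μg protein) run on SDS-PAGE; PLK1 Western blot normalised to GAPDH.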
(A western blot detects proteins with antibodies after separation by electrophoresis.)

T1 sequence (P53350 whole entry): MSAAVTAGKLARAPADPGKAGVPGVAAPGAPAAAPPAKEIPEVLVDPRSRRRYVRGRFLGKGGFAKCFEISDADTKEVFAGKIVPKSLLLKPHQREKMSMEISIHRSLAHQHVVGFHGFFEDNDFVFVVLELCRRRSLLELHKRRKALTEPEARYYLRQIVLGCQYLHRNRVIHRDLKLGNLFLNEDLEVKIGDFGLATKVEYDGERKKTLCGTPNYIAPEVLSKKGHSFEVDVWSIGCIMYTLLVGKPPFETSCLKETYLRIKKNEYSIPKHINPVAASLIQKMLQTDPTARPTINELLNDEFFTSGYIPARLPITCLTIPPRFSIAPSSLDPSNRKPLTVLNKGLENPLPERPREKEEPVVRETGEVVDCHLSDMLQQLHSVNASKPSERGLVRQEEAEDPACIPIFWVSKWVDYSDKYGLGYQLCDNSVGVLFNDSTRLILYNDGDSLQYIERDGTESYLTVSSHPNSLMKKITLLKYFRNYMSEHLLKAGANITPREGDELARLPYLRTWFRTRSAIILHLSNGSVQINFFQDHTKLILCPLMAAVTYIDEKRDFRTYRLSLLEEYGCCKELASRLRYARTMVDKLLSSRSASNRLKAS

As a reminder, the Dmax is the greatest extent of degradation seen. With `COc1cc(C(=O)NC2CCN(CCOCCOCC(=O)Nc3cccc4c3C(=O)N(C3CCC(=O)NC3=O)C4=O)CC2)c(F)cc1Nc1ncc2c(n1)N(C1CCCC1)CC(F)(F)C(=O)N2C` (centres unmarked) [Compound 26, 4-((9-cyclopentyl-7,7-difluoro-5-methyl-6-oxo-6,7,8,9-tetrahydro-5H-pyrimido[4,5-b][1,4]diazepin-2-yl)amino)-N-(1-(2-(2-(2-((2-(2,6-dioxopiperidin-3-yl)-1,3-dioxoisoindolin-4-yl)amino)-2-oxoethoxy)ethoxy)ethyl)piperidin-4-yl)-2-fluoro-5-methoxybenzamide], the Dmax was less than 60%.

With `COc1cc(C(=O)N[C@H]2CCN(C(=O)CCCN3CC4(C3)CN(c3cccc5c3C(=O)N(C3CCC(=O)NC3=O)C5=O)C4)C2)c(F)cc1Nc1ncc2c(n1)N(C1CCCC1)CC(F)(F)C(=O)N2C` (stereo partly drawn) [Example 175, 4-((9-cyclopentyl-7,7-difluoro-5-methyl-6-oxo-6,7,8,9-tetrahydro-5H-pyrimido[4,5-b][1,4]diazepin-2-yl)amino)-N-((3S)-1-(4-(6-(2-(2,6-dioxopiperidin-3-yl)-1,3-dioxoisoindolin-4-yl)-2,6-diazaspiro[3.3]heptan-2-yl)butanoyl)pyrrolidin-3-yl)-2-fluoro-5-methoxybenzamide], the Dmax is not below 80%.

For orientation: DC50 means the concentration at which degradation of the target reaches its halfway point. As for `COc1cc(C(=O)NC2CCN(CC3CCN(c4cccc5c4C(=O)N(C4CCC(=O)NC4=O)C5=O)CC3)CC2)c(F)cc1Nc1ncc2c(n1)N(C1CCCC1)CC(F)(F)C(=O)N2C` (centres unmarked) [Compound 65, 4-((9-cyclopentyl-7,7-difluoro-5-methyl-6-oxo-6,7,8,9-tetrahydro-5H-pyrimido[4,5-b][1,4]diazepin-2-yl)amino)-N-(1-((1-(2-(2,6-dioxopiperidin-3-yl)-1,3-dioxoisoindolin-4-yl)piperidin-4-yl)methyl)piperidin-4-yl)-2-fluoro-5-methoxybenzamide], the DC50 was not above 0.05 µM and the Dmax is not below 80%.

Turning to `COc1cc(C(=O)NCCOCCOCCNc2cccc3c2C(=O)N(C2CCC(=O)NC2=O)C3=O)ccc1Nc1ncc2c(n1)N(C1CCCC1)CC(F)(F)C(=O)N2C` (centres unmarked) [Example 168, 4-((9-cyclopentyl-7,7-difluoro-5-methyl-6-oxo-6,7,8,9-tetrahydro-5H-pyrimido[4,5-b][1,4]diazepin-2-yl)amino)-N-(2-(2-(2-((2-(2,6-dioxopiperidin-3-yl)-1,3-dioxoisoindolin-4-yl)amino)ethoxy)ethoxy)ethyl)-3-methoxybenzamide], the Dmax is not below 80%.

For `COc1cc(C(=O)NC2CCN(CCOCCOCCOCCNC(=O)COc3cccc4c3C(=O)N(C3CCC(=O)NC3=O)C4=O)CC2)c(F)cc1Nc1ncc2c(n1)N(C1CCCC1)CC(F)(F)C(=O)N2C` (centres unmarked) [Compound 57, 4-((9-cyclopentyl-7,7-difluoro-5-methyl-6-oxo-6,7,8,9-tetrahydro-5H-pyrimido[4,5-b][1,4]diazepin-2-yl)amino)-N-(1-(1-((2-(2,6-dioxopiperidin-3-yl)-1,3-dioxoisoindolin-4-yl)oxy)-2-oxo-6,9,12-trioxa-3-azatetradecan-14-yl)piperidin-4-yl)-2-fluoro-5-methoxybenzamide], the DC50 is not above 0.5 µM and the Dmax was 60 to 80%.

Turning to `COc1cc(C(=O)NC2CCN(CCOCCOCCOCCOCCNc3cccc4c3C(=O)N(C3CCC(=O)NC3=O)C4=O)C2)c(F)cc1Nc1ncc2c(n1)N(C1CCCC1)CC(F)(F)C(=O)N2C` (centres unmarked) [Example 108, 4-((9-cyclopentyl-7,7-difluoro-5-methyl-6-oxo-6,7,8,9-tetrahydro-5H-pyrimido[4,5-b][1,4]diazepin-2-yl)amino)-N-(1-(14-((2-(2,6-dioxopiperidin-3-yl)-1,3-dioxoisoindolin-4-yl)amino)-3,6,9,12-tetraoxatetradecyl)pyrrolidin-3-yl)-2-fluoro-5-methoxybenzamide], the DC50 is not above 0.05 µM and the Dmax was not below 80%.

Take `COc1cc(C(=O)NC2CCN(CCOCCOc3cc(-c4scnc4C)ccc3CNC(=O)[C@@H]3C[C@@H](O)CN3C(=O)[C@@H](NC(=O)C3(F)CC3)C(C)(C)C)CC2)c(F)cc1Nc1ncc2c(n1)N(C1CCCC1)CC(F)(F)C(=O)N2C` [Example 85, (2S,4R)—N-(2-(2-(2-(4-(4-((9-cyclopentyl-7,7-difluoro-5-methyl-6-oxo-6,7,8,9-tetrahydro-5H-pyrimido[4,5-b][1,4]diazepin-2-yl)amino)-2-fluoro-5-methoxybenzamido)piperidin-1-yl)ethoxy)ethoxy)-4-(4-methylthiazol-5-yl)benzyl)-1-((S)-2-(1-fluorocyclopropane-1-carboxamido)-3,3-dimethylbutanoyl)-4-hydroxypyrrolidine-2-carboxamide]: the Dmax is less than 60%.

As to `COc1cc(C(=O)NC2CCN(CCCOCCCNc3cccc4c3C(=O)N(C3CCC(=O)NC3=O)C4=O)C2)c(F)cc1Nc1ncc2c(n1)N(C1CCCC1)CC(F)(F)C(=O)N2C` (centres unmarked) [Example 111, 4-((9-cyclopentyl-7,7-difluoro-5-methyl-6-oxo-6,7,8,9-tetrahydro-5H-pyrimido[4,5-b][1,4]diazepin-2-yl)amino)-N-(1-(3-(3-((2-(2,6-dioxopiperidin-3-yl)-1,3-dioxoisoindolin-4-yl)amino)propoxy)propyl)pyrrolidin-3-yl)-2-fluoro-5-methoxybenzamide], the DC50 is not above 0.05 µM and the Dmax was not below 80%.

For the molecule `COc1cc(C(=O)NCCCCCNC(=O)COc2cccc3c2C(=O)N(C2CCC(=O)NC2=O)C3=O)c(F)cc1Nc1ncc2c(n1)N(C1CCCC1)CC(F)(F)C(=O)N2C` (centres unmarked) [Compound 162, 4-((9-cyclopentyl-7,7-difluoro-5-methyl-6-oxo-6,7,8,9-tetrahydro-5H-pyrimido[4,5-b][1,4]diazepin-2-yl)amino)-N-(5-(2-((2-(2,6-dioxopiperidin-3-yl)-1,3-dioxoisoindolin-4-yl)oxy)acetamido)pentyl)-2-fluoro-5-methoxybenzamide], the DC50 is not above 0.05 µM and the Dmax is not below 80%.
